In patent US12600740B2, “Fluorinated N-acetyl glucosamine analogs and xylose derivatives” (UTI Limited Partnership, priority 2018, dated 2026):
Entries after “also recorded” stand apart in the source; their conditions may differ.

Key:
[1] = tested on: heparan sulfate proteoglycans (HSPGs) side chains; assay: Western blot of heparan sulfate GAGs (10E4) produced by astrocytes; assay type: cell-based, mouse
Excerpt: Compounds that were able to reduce chondroitin GAGs were also investigated for their ability to reduce heparan sulfate GAGs. […] D. & de Vries, H. E. Extensive extracellular matrix depositions in active multiple sclerosis lesions. Neurobiology of disease 24, 484-491 (2006); van Horssen, J., Bö, L., Vos, C. M., Virtanen, I. & de Vries, H. E. Basement membrane proteins in multiple sclerosis-associated inflammatory cuffs: potential role in influx and transport of leukocytes. Journal of neuropathology and experimental neurology 64, 722-729 (2005)] and have detrimental pro-inflammatory capabilities [Parish, C. R. The role of heparan sulphate in inflammation. Nature reviews. Immunology 6, 633-643 (2006)].
Astrocytes were plated in uncoated 6-well plates (3 replicate wells per treatment) at 1×10^6 cells/well in mixed glial media, and incubated at 5% CO2 and 37° C. Astrocytes were treated with compounds at 50 μM in AIM-V media for 48 hours. Media was pooled from 3 replicate wells in 15 ml 100K cutoff centricon tubes (EMD Millipore, #UFC905008), which were spun on an ultracentrifuge at 5000× g for 2 cycles of 10 minutes each. When harvested, the cell lysate was kept on ice for 5 minutes with 250 μL of RIPA buffer (ThermoFisher Scientific #89900) containing proteinase inhibitor, and then collected and centrifuged at 14000 g for 5 minutes. Total protein was quantified using a Bradford assay. Conditioned media that were to be probed for chondroitin 4-sulfate GAGs (Millipore, #MAB2030) were first digested with 0.2 U/ml chondroitinase ABC for overnight at 37° C. to remove chondroitin sulfate sidechains. Blots that were to be probed with CSA (2H6, Cosmo) or CS56 (Abcam #ab11570) were not exposed to chondroitinase ABC. Samples were heat denatured with NuPAGE® LDS Sample buffer at 70° C. for 10 minutes and then loaded into 3-8% tris-acetate pre-cast gels (ThermoFisher, #EA0478BOX). The gels were electrophoresed at a constant 150 V for 90 minutes and transferred to a […] polyvinylidene fluoride membrane at a constant 250 mA for 60 minutes. The membranes were blocked for one hour with 10% skim milk in Tris-buffered saline (TBS; 0.9% NaCl, 10 mM Tris-HCl, pH 7.5) containing 0.5% Tween 20 (TBS-T). Primary antibodies were added in 3% skim milk and incubated overnight at 4° C. The membranes were washed 5×5 minutes with TBS-T. HRP-conjugated secondary antibodies were incubated for 120 minutes. The membranes were washed again for 5×5 minutes with TBS-T. Membranes were developed using an ECL chemiluminescence kit (GE Lifesciences) and manually exposed to developing and fixative solutions. Band density was quantified using Gel Analysis on ImageJ. A rectangular shape measured the density of bands for each lane. […]

EAE mice [2] = assay: Perivascular cuffs per spinal cord and Imaris quantification of CD45+ cells in EAE mice; assay type: in vivo, mouse
Excerpt: Previously it was shown that CSPGs are accumulated in perivascular cuffs and may have a role in activating immune cells and promoting their migration into the CNS [Stephenson, E. L. et al. Chondroitin sulfate proteoglycans as novel drivers of leucocyte infiltration in multiple sclerosis. Brain: a journal of neurology 141, 1094-1110 (2018)]. For the current study, cervical spinal cord sections from EAE mice treated with Ac-4,4-diF-GlcNAc 16 or vehicle were stained with pan-laminin and CD45. Confocal images were processed by Imaris software to quantify the number of CD45+ cells and their intra-parenchymal distances from perivascular cuffs as previously described [Stephenson, E. L. et al. Chondroitin sulfate proteoglycans as novel drivers of leucocyte infiltration in multiple sclerosis. Brain: a journal of neurology 141, 1094-1110 (2018)] (FIG. 10f).
Perivascular cuffs were identified with pan-laminin staining of two basement membranes with CD45+ cells clustered within the perivascular space. To obtain the average number of perivascular cuffs per spinal cord, perivascular cuffs were counted on 4 cervical spinal cord sections (each >200 μm apart), and then averaged to obtain the average perivascular cuffs per spinal cord per mouse. The Imaris software (Bitplane, Switzerland) was used to quantify the number and distance of CD45+ cells around perivascular cuffs. CD45+ cells were registered as spots and the laminin-positive membranes were registered as surfaces. The Xtension component in Imaris ‘distance transformation’ calculated the distance of every CD45+ cell from the perivascular cuff.

EAE mice [3] = assay: Experimental autoimmune encephalomyelitis (EAE) clinical score; assay type: in vivo, mouse
splenocytes = assay: Splenocyte thymidine proliferation assay (anti-CD3/anti-CD28); assay type: cell-based, mouse; conditions: increasing concentrations, 48 hours
[4] = tested on: CSPG production by astrocytes; conditions: previously described (Keough et al. 2016); cited from earlier work
EAE mice [5] = conditions: previously shown (Keough et al. 2016), 50 mgkg−1; cited from earlier work
[6] = tested on: mice demyelinated with lysolecithin; conditions: previously described (Keough et al. 2016); cited from earlier work
[7] = 50 mg/kg intraperitoneal daily, day 7 to day 15

For CC(=O)NC1C(OC(C)=O)OC(COC(C)=O)C(F)(F)[C@@H]1OC(C)=O (mixture of isomers) [Compound 16, 2-Acetamido-1,3,6-tri-O-acetyl-2,4-dideoxy-4,4-difluoro-α/β-D-xylo-hexopyranose], the “HSPG side chains (intact heparan sulfate GAGs, 10E4)” value (from here on “HSPG side chains”) [1] was “slight reduction in HSPG side chains”, the “CD45+ cells by distance from perivascular cuffs, overall versus vehicle” value (EAE mice [2]; 0 to 100 μm, two-way repeated measures ANOVA) was “overall significant difference” and the “average number of perivascular cuffs per spinal cord” value (EAE mice [2]; 25 mg/kg daily day 7 to 15) was “significantly reduced average number of perivascular cuffs”. The “CD45+ cells in the vicinity of perivascular cuffs (within 100 μm)” value (EAE mice [2]; 25 mg/kg daily day 7 to 15, cervical spinal cord) was “significantly fewer CD45+ cells in the vicinity of perivascular cuffs”, the “number of CD45+ cells at 50-100 μm from perivascular cuffs versus vehicle” value (EAE mice [2]; 50-100 μm) was “significant difference” and the EAE clinical score (EAE mice [3]; 25 mg/kg daily from peak clinical severity (day 15)) was “significantly reduced EAE clinical severity; also recorded: did not significantly improve disability until nine days after treatment”. For the same compound, the “sum of scores (burden of disease)” value (EAE mice [3]; 25 mg/kg intraperitoneal daily, day 7 to day 15) was “significantly reduced”, the EAE clinical score (EAE mice [3]; 25 mg/kg intraperitoneal daily, day 7 to day 15 (pre-onset)) was “significantly lower EAE clinical scores than the control group” and the EAE clinical score (EAE mice [3]; [7]) was “pronounced reduction in EAE clinical severity beyond that seen for the mono-fluorinated Ac-4-F-GlcNAc”. For the same compound, the “dose-response to reduce proliferation in splenocytes” value (splenocytes) was “more effective than Ac-4-F-GlcNAc 3 at lower concentrations”.
With CC(=O)NC1C(O)OC(COC(C)=O)[C@@H](F)[C@@H]1OC(C)=O (mixture of isomers) [Compound 10] the EAE clinical score (EAE mice [3]; [7]) was “did not reduce EAE clinical score; also recorded: no significant improvement in EAE clinical score”.
For CCCC(=O)OC1OC(COC(C)=O)[C@@H](F)[C@H](OC(C)=O)C1NC(C)=O (mixture of isomers) [Compound 8, 2-Acetamido-3,6-di-O-acetyl-1-O-butanoyl-2,4-dideoxy-4-fluoro-α/β-D-glucopyranose], the “HSPG side chains” value [1] was “slight reduction in HSPG side chains”.
For CCCC(=O)OC[C@H]1OC(O)[C@H](NC(C)=O)[C@@H](OC(=O)CCC)[C@@H]1F (stereo partly drawn) [Compound 12, 2-Acetamido-3,6-di-O-butanoyl-2,4-dideoxy-4-fluoro-α/β-3-D-glucopyranose], the “HSPG side chains” value [1] was “slight reduction in HSPG side chains”.
For CC(=O)NC1C(OC(C)=O)OC(COC(C)=O)[C@@H](F)C1OC(C)=O (some centres unmarked) [Compound 3, reference compound], the “production of CSPGs by astrocytes” value [4] is given as “reduced production of CSPGs by astrocytes”, the “HSPG side chains” value [1] is given as “slight reduction in HSPG side chains” and the EAE clinical disability (EAE mice [5]) is given as “attenuated the severity of mice afflicted with EAE; also recorded: reduced the ensuing EAE clinical disability”. For the same compound, the remyelination [6] was “promoted remyelination following lysolecithin demyelination of the mouse spinal cord”.
